Source: publication PMC2443190, “Novel Intermolecular Iterative Mechanism for Biosynthesis of Mycoketide Catalyzed by a Bimodular Polyketide Synthase” (PLoS Biology, 2008)

Legend:
[1] = target: T1, PKS12 (Mycobacterium tuberculosis, UniProt I6XD69)
[2] = target: T1, PKS12; remark: listed apart in the source

T1 sequence (I6XD69 whole entry): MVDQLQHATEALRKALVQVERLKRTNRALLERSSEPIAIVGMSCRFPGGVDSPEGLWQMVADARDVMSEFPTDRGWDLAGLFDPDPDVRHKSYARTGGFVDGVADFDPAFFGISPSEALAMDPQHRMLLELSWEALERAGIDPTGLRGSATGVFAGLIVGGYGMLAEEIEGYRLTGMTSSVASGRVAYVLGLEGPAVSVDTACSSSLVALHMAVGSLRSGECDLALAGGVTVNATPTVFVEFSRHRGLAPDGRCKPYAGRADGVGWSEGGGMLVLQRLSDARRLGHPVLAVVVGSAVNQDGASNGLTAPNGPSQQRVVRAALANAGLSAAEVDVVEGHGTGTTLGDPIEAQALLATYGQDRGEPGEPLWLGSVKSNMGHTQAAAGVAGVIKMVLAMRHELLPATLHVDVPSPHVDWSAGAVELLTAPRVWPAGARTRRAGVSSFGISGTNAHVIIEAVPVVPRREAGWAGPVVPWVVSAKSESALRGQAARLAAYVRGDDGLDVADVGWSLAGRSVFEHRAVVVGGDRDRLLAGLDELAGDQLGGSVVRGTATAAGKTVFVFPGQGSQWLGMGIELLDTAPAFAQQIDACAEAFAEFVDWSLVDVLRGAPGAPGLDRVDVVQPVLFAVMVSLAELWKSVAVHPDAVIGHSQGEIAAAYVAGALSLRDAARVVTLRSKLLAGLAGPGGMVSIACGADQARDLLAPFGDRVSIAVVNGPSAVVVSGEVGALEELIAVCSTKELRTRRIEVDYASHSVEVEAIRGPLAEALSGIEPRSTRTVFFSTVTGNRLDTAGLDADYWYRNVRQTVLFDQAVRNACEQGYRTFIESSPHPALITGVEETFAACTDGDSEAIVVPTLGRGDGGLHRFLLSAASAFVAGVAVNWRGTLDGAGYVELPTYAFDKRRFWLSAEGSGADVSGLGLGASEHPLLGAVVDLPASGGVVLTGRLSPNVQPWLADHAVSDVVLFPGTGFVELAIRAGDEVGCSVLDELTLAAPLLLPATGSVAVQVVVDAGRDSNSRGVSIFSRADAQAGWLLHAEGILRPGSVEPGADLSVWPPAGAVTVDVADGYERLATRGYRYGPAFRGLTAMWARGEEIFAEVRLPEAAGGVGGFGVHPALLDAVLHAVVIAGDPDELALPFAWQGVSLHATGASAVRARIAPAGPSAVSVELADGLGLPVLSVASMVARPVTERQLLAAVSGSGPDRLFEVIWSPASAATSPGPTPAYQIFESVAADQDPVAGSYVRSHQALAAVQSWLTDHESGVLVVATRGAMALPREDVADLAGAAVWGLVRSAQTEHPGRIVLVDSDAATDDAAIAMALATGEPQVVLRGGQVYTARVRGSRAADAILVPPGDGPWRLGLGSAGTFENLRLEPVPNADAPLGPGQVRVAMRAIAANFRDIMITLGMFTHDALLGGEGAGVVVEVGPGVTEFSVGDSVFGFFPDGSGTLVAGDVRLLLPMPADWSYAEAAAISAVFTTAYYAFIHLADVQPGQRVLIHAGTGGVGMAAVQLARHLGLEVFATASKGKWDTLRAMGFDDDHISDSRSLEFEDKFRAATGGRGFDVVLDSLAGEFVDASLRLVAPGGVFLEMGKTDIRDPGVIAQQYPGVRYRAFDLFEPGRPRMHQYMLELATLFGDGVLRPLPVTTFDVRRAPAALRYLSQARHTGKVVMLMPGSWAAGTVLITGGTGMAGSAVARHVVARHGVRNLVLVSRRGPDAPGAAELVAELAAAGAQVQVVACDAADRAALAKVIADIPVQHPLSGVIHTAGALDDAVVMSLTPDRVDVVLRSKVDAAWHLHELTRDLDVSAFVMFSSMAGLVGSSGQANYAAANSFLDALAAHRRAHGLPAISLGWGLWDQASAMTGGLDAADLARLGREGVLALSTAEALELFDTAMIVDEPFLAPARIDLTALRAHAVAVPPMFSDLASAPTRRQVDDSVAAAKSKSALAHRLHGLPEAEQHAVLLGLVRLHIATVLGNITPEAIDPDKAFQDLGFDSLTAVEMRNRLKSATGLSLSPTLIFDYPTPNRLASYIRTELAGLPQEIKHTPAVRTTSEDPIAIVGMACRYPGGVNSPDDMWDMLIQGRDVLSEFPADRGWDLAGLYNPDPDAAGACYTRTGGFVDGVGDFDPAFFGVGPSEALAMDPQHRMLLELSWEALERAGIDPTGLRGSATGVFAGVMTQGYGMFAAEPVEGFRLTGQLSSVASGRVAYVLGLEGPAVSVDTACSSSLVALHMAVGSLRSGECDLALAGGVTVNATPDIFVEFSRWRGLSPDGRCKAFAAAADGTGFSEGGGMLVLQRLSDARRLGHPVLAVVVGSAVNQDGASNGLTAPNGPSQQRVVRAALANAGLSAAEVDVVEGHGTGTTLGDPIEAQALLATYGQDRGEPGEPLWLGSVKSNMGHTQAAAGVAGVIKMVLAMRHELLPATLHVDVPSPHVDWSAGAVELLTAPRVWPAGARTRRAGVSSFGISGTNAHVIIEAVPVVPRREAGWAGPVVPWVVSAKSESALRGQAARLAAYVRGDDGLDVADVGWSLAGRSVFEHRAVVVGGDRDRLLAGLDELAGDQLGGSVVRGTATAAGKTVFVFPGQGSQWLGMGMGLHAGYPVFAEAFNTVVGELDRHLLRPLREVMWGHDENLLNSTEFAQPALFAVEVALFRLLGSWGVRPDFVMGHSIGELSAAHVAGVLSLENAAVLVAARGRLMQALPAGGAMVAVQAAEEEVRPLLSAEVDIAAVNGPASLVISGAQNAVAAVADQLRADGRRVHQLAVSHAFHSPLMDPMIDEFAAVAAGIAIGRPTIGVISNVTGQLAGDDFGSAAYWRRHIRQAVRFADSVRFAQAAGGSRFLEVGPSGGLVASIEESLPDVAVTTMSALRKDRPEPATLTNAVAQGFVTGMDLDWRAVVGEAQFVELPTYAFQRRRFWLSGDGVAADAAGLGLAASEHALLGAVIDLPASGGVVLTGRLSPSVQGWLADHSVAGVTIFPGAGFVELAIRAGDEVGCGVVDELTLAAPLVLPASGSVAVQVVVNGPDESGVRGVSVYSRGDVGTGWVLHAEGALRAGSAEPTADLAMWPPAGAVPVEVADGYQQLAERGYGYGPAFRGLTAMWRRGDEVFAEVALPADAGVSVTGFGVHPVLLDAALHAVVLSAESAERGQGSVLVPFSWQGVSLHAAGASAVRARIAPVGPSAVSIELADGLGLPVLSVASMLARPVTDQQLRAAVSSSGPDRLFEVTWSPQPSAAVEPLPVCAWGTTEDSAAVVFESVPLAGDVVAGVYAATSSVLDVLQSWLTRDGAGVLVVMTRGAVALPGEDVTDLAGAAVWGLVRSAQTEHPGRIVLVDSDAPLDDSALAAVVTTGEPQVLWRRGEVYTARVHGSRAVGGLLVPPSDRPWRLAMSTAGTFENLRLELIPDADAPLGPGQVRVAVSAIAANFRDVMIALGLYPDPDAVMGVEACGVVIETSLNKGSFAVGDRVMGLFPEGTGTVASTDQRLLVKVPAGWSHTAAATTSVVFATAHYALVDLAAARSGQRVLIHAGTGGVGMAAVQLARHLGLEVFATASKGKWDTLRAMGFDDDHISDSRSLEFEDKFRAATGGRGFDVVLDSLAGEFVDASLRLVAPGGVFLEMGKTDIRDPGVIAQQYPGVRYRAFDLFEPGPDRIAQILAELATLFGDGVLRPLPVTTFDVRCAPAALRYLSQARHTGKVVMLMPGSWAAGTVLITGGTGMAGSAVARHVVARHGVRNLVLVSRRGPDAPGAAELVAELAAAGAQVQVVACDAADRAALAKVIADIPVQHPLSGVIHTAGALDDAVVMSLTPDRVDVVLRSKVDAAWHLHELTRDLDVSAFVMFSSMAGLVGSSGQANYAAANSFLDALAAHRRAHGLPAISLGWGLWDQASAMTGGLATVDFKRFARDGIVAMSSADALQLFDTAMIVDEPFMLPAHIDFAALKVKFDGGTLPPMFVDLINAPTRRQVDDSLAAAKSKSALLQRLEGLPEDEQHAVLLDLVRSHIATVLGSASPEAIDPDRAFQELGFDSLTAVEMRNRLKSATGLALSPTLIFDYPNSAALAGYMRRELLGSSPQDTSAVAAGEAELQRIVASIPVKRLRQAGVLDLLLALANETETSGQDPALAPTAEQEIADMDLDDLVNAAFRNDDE

Structure (SMILES) | inhibition at 100 μM [1] | 14C labelling of protein, SDS-PAGE phosphorimaging [2]
C/C=C/C/C=C/CCC(=O)[C@H]1O[C@H]1C(N)=O [cerulenin] | incubation of PKS12 protein with KS inhibitor cerulenin showed no radioactive bands | –
CC(C(=O)O)C(=O)SCCNC(=O)CCNC(=O)[C@H](O)C(C)(C)COP(=O)(O)OP(=O)(O)OC[C@H]1O[C@@H](n2cnc3c(N)ncnc32)[C@H](O)[C@@H]1OP(=O)(O)O (stereo partly drawn) [methylmalonyl CoA] | – | SDS-PAGE gel-binding assays clearly showed that PKS12 could be radiolabeled with both of these substrates
CC(C)(COP(=O)(O)OP(=O)(O)OC[C@H]1O[C@@H](n2cnc3c(N)ncnc32)[C@H](O)[C@@H]1OP(=O)(O)O)[C@@H](O)C(=O)NCCC(=O)NCCSC(=O)CC(=O)O [malonyl CoA] | – | SDS-PAGE gel-binding assays clearly showed that PKS12 could be radiolabeled with both of these substrates
